Results published in article PMC3053071 (Bioorganic & medicinal chemistry letters, 2011).

Assay: Cell toxicity
Type: cell-based

In the case of `C=C(C)[C@@H]1CC[C@]2(C(=O)O)CC[C@]3(C)[C@H](CC[C@@H]4[C@@]5(C)CC[C@H](OC(=O)CC(C)(C)C(=O)O)C(C)(C)[C@@H]5CC[C@]43C)[C@@H]12` [Bevirimat, 3-O-(3′,3′-dimethylsuccinyl)betulinic acid], the IC50 is reported as over 300 µM.
